Values quoted from earlier work, collected in patent US20240122923A1, “METHODS OF TREATING HIDRADENITIS SUPPURATIVA” (AbbVie Inc., priority 2022, published 2024).

System: HS
Conditions: 24-week treatment period; cited from earlier work

etanercept
improvement of HS: failed to show improvement of HS
